According to patent publication US6355799B1, “Substituted benzene compounds, process for their preparation, and herbicidal and defoliant compositions containing them” (ISK Americas Incorporated, priority 1997, dated 2002):

Assays:
Format in all cases: in vivo
[1] = tested on: redroot pigweed (Amaranthus retroflexus, AMARE); assay: Pre-emerge test, greenhouse herbicide activity screening; details: rating scale 0-100, 14 days after application
Procedure, shortened: (§1)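 Plants grown in 10 cm pots of sandy loam mix received acetone-dissolved compounds through a moving flat-fan nozzle. Doses ranged from 15 to 1000 g ai/ha. Pre-emerge pots were seeded one day earlier, post-emerge pots 8–21 days earlier. Fourteen days on, each pot was graded 0–100 for damage.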

[2] = tested on: barnyardgrass (Echinochloa crus-galli, ECHCG); assay: as above; details: rating scale 0-100, 14 days after application
Procedure, shortened: (§2)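 Rating: 0–100 visual injury, 14 DAA. Application: acetone, 187 l/ha, 15–1000 g ai/ha, flat-fan track sprayer with nozzle 40–45 cm above soil or canopy. Post-emerge runs used 0.25% v/v surfactant on 2–3 leaf plants.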

[3] = tested on: common ragweed (Ambrosia artemisizfolia L., AMBEL); assay: as above; details: rating scale 0-100, 14 days after application
Procedure, shortened: as §2

[4] = tested on: green foxtail (Setaria viridis, SETVI); assay: as above; details: rating scale 0-100, 14 days after application
Procedure, shortened: as §2

[5] = tested on: ivyleaf morningglory (Ipomoea hederacea, IPOHE); assay: as above; details: rating scale 0-100, 14 days after application
Procedure, shortened: as §2

[6] = tested on: johnsongrass (Sorghum halepense, SORHA); assay: as above; details: rating scale 0-100, 14 days after application
Procedure, shortened: as §2

[7] = tested on: lambsquarters (Chenopodium album, CHEAL); assay: as above; details: rating scale 0-100, 14 days after application
Procedure, shortened: as §2

[8] = tested on: large crabgrass (Digitaria sanguinalis, DIGSA); assay: as above; details: rating scale 0-100, 14 days after application
Procedure, shortened: as §2

[9] = tested on: sicklepod (Cassia obtusifolia, CASOB); assay: as above; details: rating scale 0-100, 14 days after application
Procedure, shortened: as §2

[10] = tested on: velvetleaf (Abutilon theophrasti, ABUTH); assay: as above; details: rating scale 0-100, 14 days after application
Procedure, shortened: as §2

[11] = tested on: field corn (Zea mays L., var. Dekalb 535, CORN); assay: Pre-emerge test, crop safety; details: rating scale 0-100, 14 days after application
Procedure, shortened: (§3)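 Sandy loam pots; pre-emerge: sown 1 d pre-spray, surface-watered after, then bottom-watered. Post-emerge: sown 8–21 d before, 2–3 leaf stage, + 0.25% v/v NIS, bottom-watered. Acetone, 187 l/ha track spray, 15–1000 g ai/ha. 0–100 injury score, day 14.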

[12] = tested on: upland rice (Oryza sp., var. Tebonnet, RICE); assay: Pre-emerge test, crop safety; details: rating scale 0-100, 14 days after application
Procedure, shortened: as §3

[13] = tested on: barnyardgrass (Echinochloa crus-galli, ECHCG); assay: Post-emerge test, greenhouse herbicide activity screening; details: rating scale 0-100 (0 no damage, 100 complete death), 14 days after application
Procedure, shortened: (§4)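 Applied at 15–1000 g ai/ha from acetone in 187 l/ha spray volume. Post-emergence applications included 0.25% v/v non-ionic surfactant and reached plants sown 8–21 days before. Pre-emergence applications were incorporated by surface watering. Efficacy or crop damage was rated on a 0–100 scale after 14 days.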

[14] = tested on: common ragweed (Ambrosia artemisizfolia L., AMBEL); assay: as above; details: rating scale 0-100 (0 no damage, 100 complete death), 14 days after application
Procedure, shortened: as §4

[15] = tested on: green foxtail (Setaria viridis, SETVI); assay: as above; details: rating scale 0-100 (0 no damage, 100 complete death), 14 days after application
Procedure, shortened: as §4

[16] = tested on: ivyleaf morningglory (Ipomoea hederacea, IPOHE); assay: as above; details: rating scale 0-100 (0 no damage, 100 complete death), 14 days after application
Procedure, shortened: as §4

[17] = tested on: lambsquarters (Chenopodium album, CHEAL); assay: as above; details: rating scale 0-100 (0 no damage, 100 complete death), 14 days after application
Procedure, shortened: as §4

[18] = tested on: large crabgrass (Digitaria sanguinalis, DIGSA); assay: as above; details: rating scale 0-100 (0 no damage, 100 complete death), 14 days after application
Procedure, shortened: as §4

[19] = tested on: redroot pigweed (Amaranthus retroflexus, AMARE); assay: as above; details: rating scale 0-100 (0 no damage, 100 complete death), 14 days after application
Procedure, shortened: as §4

[20] = tested on: sicklepod (Cassia obtusifolia, CASOB); assay: as above; details: rating scale 0-100 (0 no damage, 100 complete death), 14 days after application
Procedure, shortened: as §4

[21] = tested on: velvetleaf (Abutilon theophrasti, ABUTH); assay: as above; details: rating scale 0-100 (0 no damage, 100 complete death), 14 days after application
Procedure, shortened: as §4

[22] = tested on: field corn (Zea mays L., var. Dekalb 535, CORN); assay: Post-emerge test, crop safety; details: rating scale 0-100 (0 no damage, 100 complete death), 14 days after application
Procedure, shortened: as §1

[23] = tested on: upland rice (Oryza sp., var. Tebonnet, RICE); assay: Post-emerge test, crop safety; details: rating scale 0-100 (0 no damage, 100 complete death), 14 days after application
Procedure, shortened: as §1

CCCCOC(=O)C(Cl)Cc1c(OC)c(Cl)cc(F)c1-n1c(=O)cc(C(F)(F)F)n(C)c1=O (single isomer, unassigned) [14-8]
Pre-emerge herbicidal activity, phytotoxicity rating AMARE ([1]; 63 g ai/ha): 100
Pre-emerge herbicidal activity, phytotoxicity rating AMARE ([1]; 250 g ai/ha): 99
Pre-emerge herbicidal activity, phytotoxicity rating ECHCG ([2]; 63 g ai/ha): 0
Pre-emerge herbicidal activity, phytotoxicity rating ECHCG ([2]; 250 g ai/ha): 20
Pre-emerge herbicidal activity, phytotoxicity rating AMBEL ([3]; 63 g ai/ha): 0
Pre-emerge herbicidal activity, phytotoxicity rating AMBEL ([3]; 250 g ai/ha): 40
Pre-emerge herbicidal activity, phytotoxicity rating SETVI ([4]; 63 g ai/ha): 0
Pre-emerge herbicidal activity, phytotoxicity rating SETVI ([4]; 250 g ai/ha): 0
Pre-emerge herbicidal activity, phytotoxicity rating IPOHE ([5]; 63 g ai/ha): 0
Pre-emerge herbicidal activity, phytotoxicity rating IPOHE ([5]; 250 g ai/ha): 0
Pre-emerge herbicidal activity, phytotoxicity rating SORHA ([6]; 63 g ai/ha): 0
Pre-emerge herbicidal activity, phytotoxicity rating SORHA ([6]; 250 g ai/ha): 0
Pre-emerge herbicidal activity, phytotoxicity rating CHEAL ([7]; 63 g ai/ha): 70
Pre-emerge herbicidal activity, phytotoxicity rating CHEAL ([7]; 250 g ai/ha): 95
Pre-emerge herbicidal activity, phytotoxicity rating DIGSA ([8]; 63 g ai/ha): 40
Pre-emerge herbicidal activity, phytotoxicity rating DIGSA ([8]; 250 g ai/ha): 100
Pre-emerge herbicidal activity, phytotoxicity rating CASOB ([9]; 63 g ai/ha): 0
Pre-emerge herbicidal activity, phytotoxicity rating CASOB ([9]; 250 g ai/ha): 0
Pre-emerge herbicidal activity, phytotoxicity rating ABUTH ([10]; 63 g ai/ha): 0
Pre-emerge herbicidal activity, phytotoxicity rating ABUTH ([10]; 250 g ai/ha): 40
Pre-emerge phytotoxicity rating, crop damage CORN ([11]; 63 g ai/ha): 0
Pre-emerge phytotoxicity rating, crop damage CORN ([11]; 250 g ai/ha): 0
Pre-emerge phytotoxicity rating, crop damage RICE ([12]; 63 g ai/ha): 0
Pre-emerge phytotoxicity rating, crop damage RICE ([12]; 250 g ai/ha): 0
Post-emerge Herbicidal Activity, phytotoxicity rating ECHCG ([13]; Rate 63 g ai/ha): 95
Post-emerge Herbicidal Activity, phytotoxicity rating ECHCG ([13]; Rate 250 g ai/ha): 99
Post-emerge Herbicidal Activity, phytotoxicity rating AMBEL ([14]; Rate 63 g ai/ha): 10
Post-emerge Herbicidal Activity, phytotoxicity rating AMBEL ([14]; Rate 250 g ai/ha): 50
Post-emerge Herbicidal Activity, phytotoxicity rating SETVI ([15]; Rate 63 g ai/ha): 10
Post-emerge Herbicidal Activity, phytotoxicity rating SETVI ([15]; Rate 250 g ai/ha): 40
Post-emerge Herbicidal Activity, phytotoxicity rating IPOHE ([16]; Rate 63 g ai/ha): 30
Post-emerge Herbicidal Activity, phytotoxicity rating IPOHE ([16]; Rate 250 g ai/ha): 95
Post-emerge Herbicidal Activity, phytotoxicity rating CHEAL ([17]; Rate 63 g ai/ha): 70
Post-emerge Herbicidal Activity, phytotoxicity rating CHEAL ([17]; Rate 250 g ai/ha): 99
Post-emerge Herbicidal Activity, phytotoxicity rating DIGSA ([18]; Rate 63 g ai/ha): 40
Post-emerge Herbicidal Activity, phytotoxicity rating DIGSA ([18]; Rate 250 g ai/ha): 85
Post-emerge Herbicidal Activity, phytotoxicity rating AMARE ([19]; Rate 63 g ai/ha): 90
Post-emerge Herbicidal Activity, phytotoxicity rating AMARE ([19]; Rate 250 g ai/ha): 100
Post-emerge Herbicidal Activity, phytotoxicity rating CASOB ([20]; Rate 63 g ai/ha): 30
Post-emerge Herbicidal Activity, phytotoxicity rating CASOB ([20]; Rate 250 g ai/ha): 80
Post-emerge Herbicidal Activity, phytotoxicity rating ABUTH ([21]; Rate 63 g ai/ha): 60
Post-emerge Herbicidal Activity, phytotoxicity rating ABUTH ([21]; Rate 250 g ai/ha): 100
Post-emerge phytotoxicity rating CORN (crop damage) ([22]; Rate 63 g ai/ha): 40
Post-emerge phytotoxicity rating CORN (crop damage) ([22]; Rate 250 g ai/ha): 80
Post-emerge phytotoxicity rating RICE (crop damage) ([23]; Rate 63 g ai/ha): 5
Post-emerge phytotoxicity rating RICE (crop damage) ([23]; Rate 250 g ai/ha): 30
